According to a compilation of properties of binary mixtures (doi:10.1021/acs.jced.0c00138):

Experiment: xn = mol fraction of the nth substance listed
Details: 101.3 kPa

CCCOCCO + CC[n+]1ccn(C)c1.O=S(=O)([N-]S(=O)(=O)C(F)(F)F)C(F)(F)F
speed of sound [m/s]
Details | 298.15 K | 303.15 K | 308.15 K | 313.15 K | 318.15 K
x2 = 0.0479 | 1290.9 | 1275.1 | – | 1243.4 | 1228.5
x2 = 0.0964 | 1283.5 | – | 1253.7 | 1238.8 | –
x2 = 0.1514 | 1278 | 1264.2 | 1249.6 | 1234.5 | 1220.2
x2 = 0.2034 | 1273.8 | – | 1245.7 | – | –
x2 = 0.2917 | 1268 | 1255 | 1241.1 | – | –
x2 = 0.3883 | 1263.2 | 1250.6 | 1237 | 1223.4 | –
x2 = 0.4926 | 1258.1 | – | 1233.3 | 1220.8 | 1208.4
x2 = 0.5974 | 1252.8 | 1240.9 | 1229.2 | 1217.1 | 1205.2
x2 = 0.6927 | 1248 | 1236.4 | 1225 | 1214 | 1202.8
x2 = 0.7631 | – | 1232.8 | 1222 | 1211.3 | 1200.3
x2 = 0.8253 | 1241.9 | 1230.8 | 1220.5 | 1209.8 | 1199.5
x2 = 0.8945 | 1240.7 | – | 1219.2 | 1208.4 | 1198.4
x2 = 0.9518 | 1239.7 | 1229.2 | 1218.8 | 1207.7 | 1198

CC[n+]1ccn(C)c1.O=S(=O)([N-]S(=O)(=O)C(F)(F)F)C(F)(F)F + CCCOCCO
x1 = 1
Details | speed of sound [m/s]
298.15 K | 1239.6
303.15 K | 1228.7
308.15 K | 1218.2
313.15 K | 1207.3
318.15 K | 1196.8
